15 compounds from ChEMBL document CHEMBL1201862, “PubChem BioAssay data set” (2004) can be followed below.

Structures are written as SMILES.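 96-well plates; 48 h exposure; 5 concentrations. Endpoints by linear interpolation between flanking doses. Not reached: highest tested concentration assigned. At the GI50, growth is halved.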 The source made the active and inactive calls. No stated cut-off is given here; in the data, active = GI50 up to about 1.1 µM and inactive = higher.

Among the test systems are HOP-92; HCC 2998; RXF 393; NCI-H23; TK-10; OVCAR-3; HCT-15; ACHN; K562; M14; SK-MEL-5; NCI-H460; SF-539; RPMI-8226; A498.
What all share (experiment): growth of human tumour cells (NCI), 48 h

On to `CC(=O)/C(=C\c1cccc([N+](=O)[O-])c1)C(=O)Nc1ccccc1C`, for which the GI50 in the experiment with HOP-92 is > 100 µM (inactive); in the experiment with HCC 2998, 75.5 µM (inactive); with RXF 393, > 100 µM (inactive); in the experiment with NCI-H23, > 100 µM (inactive); in the experiment with TK-10 it was > 100 µM (inactive); in the experiment with OVCAR-3, > 100 µM (inactive). Also, the GI50 in the experiment on HCT-15 is over 100 µM; in the experiment on ACHN, > 100 µM (inactive); in the experiment with K562 it was 72.4 µM (inactive); in the experiment on M14, 95.7 µM (inactive); with SK-MEL-5, > 100 µM (inactive); in the experiment with NCI-H460 it was > 100 µM (inactive). In addition, the GI50 in the experiment with SF-539 was > 100 µM (inactive); with RPMI-8226, 42.8 µM (inactive).
Turning to `C=CCC(C(=O)OC)C1(C(=O)OC)c2[nH]c3ccccc3c2CCN1Cc1ccccc1` (configuration not stated), the GI50 in the experiment with HOP-92 is 23.4 µM (inactive); in the experiment on HCC 2998 it was > 100 µM (inactive); in the experiment on RXF 393, 33 µM (inactive); in the experiment on NCI-H23, > 100 µM (inactive); in the experiment with TK-10, > 100 µM (inactive); with OVCAR-3, > 100 µM (inactive). Moreover, the GI50 with HCT-15 is over 100 µM; in the experiment with K562, > 10 µM (inactive); in the experiment with M14, 82.4 µM (inactive); in the experiment with SK-MEL-5, 85.5 µM (inactive); in the experiment on A498 it was 54.6 µM (inactive); with SF-539, > 100 µM (inactive). Further, the GI50 in the experiment with RPMI-8226 was > 100 µM (inactive).
On to `CNCC(=O)Nc1ccc2c(c1)C(=O)c1ccc(NC(=O)CNC)cc1C2=O`, for which the GI50 in the experiment on HOP-92 was 1.78 µM (inactive); in the experiment with HCC 2998 it was 4.72 µM (inactive); with RXF 393, 7.31 µM (inactive); in the experiment on NCI-H23 it was 13.4 µM (inactive); in the experiment on TK-10, 17.3 µM (inactive); with OVCAR-3 it was 3.05 µM (inactive). In addition, the GI50 was 7.62 µM with HCT-15; 1.96 µM (inactive) in the experiment on K562; 2.55 µM (inactive) in the experiment on M14; 4.68 µM (inactive) in the experiment with SK-MEL-5; 3.77 µM (inactive) in the experiment on NCI-H460; 14.9 µM (inactive) in the experiment with A498. The GI50 in the experiment with SF-539 is 3.1 µM (inactive).
In the case of `COc1ccc(/C=c2/sc3n(c2=O)NC2(CCC(C)CC2)NN=3)cc1` (configuration not stated), the GI50 in the experiment with HOP-92 was 34.9 µM (inactive); in the experiment with HCC 2998, > 100 µM (inactive); in the experiment on RXF 393 it was > 100 µM (inactive); in the experiment on NCI-H23 it was > 100 µM (inactive); in the experiment with TK-10 it was > 100 µM (inactive); with OVCAR-3, 60.8 µM (inactive). Further, the GI50 was > 100 µM (inactive) in the experiment with ACHN; > 100 µM (inactive) in the experiment with K562; > 100 µM (inactive) with M14; 49.7 µM (inactive) in the experiment with SK-MEL-5; > 100 µM (inactive) in the experiment on NCI-H460; > 100 µM (inactive) in the experiment on SF-539.
In the case of `CSc1snc2sc3c(Cl)nnnc3c12`, the GI50 is 6.01 µM (inactive) in the experiment with HCC 2998; 12.3 µM (inactive) in the experiment on RXF 393; 18.3 µM (inactive) in the experiment on NCI-H23; 16.9 µM (inactive) in the experiment with TK-10; 2.43 µM (inactive) with OVCAR-3; 8.15 µM in the experiment with HCT-15. Also, the GI50 was 11.1 µM (inactive) in the experiment on ACHN; 2.36 µM (inactive) in the experiment on K562; 12.6 µM (inactive) with M14; 16.7 µM (inactive) in the experiment on SK-MEL-5; 15.8 µM (inactive) with NCI-H460; 15 µM (inactive) in the experiment on A498. Further, the GI50 with SF-539 was 17.8 µM (inactive); with RPMI-8226, 15.6 µM (inactive).
Regarding `O=C(Nc1cccc(Cc2cccc(NC(=O)c3ccccc3)c2)c1)c1ccccc1`, the GI50 in the experiment on HOP-92 was 9.77 µM (inactive); in the experiment with HCC 2998, > 100 µM (inactive); in the experiment on RXF 393, 14.8 µM (inactive); in the experiment on NCI-H23, 33.1 µM (inactive); in the experiment on TK-10, > 100 µM (inactive); in the experiment with OVCAR-3, 26.9 µM (inactive). For the same compound, the GI50 in the experiment on HCT-15 was 89.3 µM; in the experiment with ACHN, 28.2 µM (inactive); in the experiment on K562 it was > 100 µM (inactive); with M14, 55.1 µM (inactive); in the experiment with SK-MEL-5 it was 25.1 µM (inactive); with NCI-H460, 36.1 µM (inactive). Moreover, the GI50 with A498 is 17.8 µM (inactive); in the experiment with SF-539 it was 12.6 µM (inactive).
As for `CCc1cccc(C)c1NC(=O)CC(=O)NNC(N)=S`, the GI50 in the experiment on HOP-92, in the experiment on HCC 2998, in the experiment with RXF 393, in the experiment with NCI-H23, in the experiment with TK-10 and in the experiment on OVCAR-3 was > 100 µM (inactive) throughout. Also, the GI50 was over 100 µM in the experiment on HCT-15; > 100 µM (inactive) in the experiment on ACHN; > 100 µM (inactive) with K562; > 100 µM (inactive) with M14; > 100 µM (inactive) in the experiment with SK-MEL-5; > 100 µM (inactive) in the experiment with NCI-H460. Also, the GI50 in the experiment with RPMI-8226 is > 100 µM (inactive).
For `O=S(=O)(O)C(O)/C=C/c1ccccc1` (configuration not stated), the GI50 in the experiment with HCC 2998 is > 100 µM (inactive); with RXF 393, > 100 µM (inactive); in the experiment on NCI-H23, > 100 µM (inactive); with TK-10, > 100 µM (inactive); in the experiment on OVCAR-3, > 100 µM (inactive); in the experiment on HCT-15, over 100 µM. The GI50 in the experiment with ACHN, with K562, in the experiment with M14, in the experiment on SK-MEL-5 and in the experiment with A498 was > 100 µM (inactive) in each case.
Consider `Cc1c(Cl)ccc2c1NC(=O)C2(O)CC(=O)c1cccc2ccccc12` (configuration not stated), for which the GI50 in the experiment with HCC 2998 was > 100 µM (inactive); in the experiment with RXF 393 it was 99.3 µM (inactive); in the experiment with NCI-H23 it was > 100 µM (inactive); with TK-10, > 100 µM (inactive); in the experiment on OVCAR-3 it was 78.3 µM (inactive); with HCT-15, 78.5 µM. Besides, the GI50 was > 100 µM (inactive) with ACHN; 85.5 µM (inactive) with K562; > 100 µM (inactive) in the experiment on M14; 34 µM (inactive) with SK-MEL-5; 59.7 µM (inactive) with NCI-H460; 69.5 µM (inactive) in the experiment with A498. The GI50 with SF-539 is > 100 µM (inactive); in the experiment on RPMI-8226, 28.9 µM (inactive).
Take `O=C1CCC(c2ccccc2)C(O)(C(=O)O)C1` (configuration not stated): the GI50 in the experiment with HOP-92 was > 100 µM (inactive); in the experiment on HCC 2998, > 100 µM (inactive); in the experiment with NCI-H23, > 100 µM (inactive); in the experiment with TK-10 it was > 100 µM (inactive); with OVCAR-3, > 100 µM (inactive); in the experiment on HCT-15, over 100 µM. The GI50 with ACHN, in the experiment on K562, with M14, in the experiment with SK-MEL-5, with NCI-H460 and with A498 was > 100 µM (inactive) each time. Further, the GI50 in the experiment on SF-539 and in the experiment on RPMI-8226 was > 100 µM (inactive) in each case.
As to `Cc1ccc(-c2cc(-c3ccco3)c(C#N)c(=O)n2C2OC(OC(=O)c3ccccc3)C(OC(=O)c3ccccc3)C2OC(=O)c2ccccc2)cc1` (configuration not stated), the GI50 is 24.7 µM (inactive) in the experiment with HOP-92; > 100 µM (inactive) with HCC 2998; 24.9 µM (inactive) with RXF 393; 96.2 µM (inactive) in the experiment on TK-10; 39.2 µM (inactive) in the experiment with OVCAR-3; over 100 µM in the experiment with HCT-15. Further, the GI50 was > 100 µM (inactive) with ACHN; > 100 µM (inactive) in the experiment with K562; 64.4 µM (inactive) with M14; > 100 µM (inactive) in the experiment on NCI-H460; > 100 µM (inactive) with A498; > 100 µM (inactive) in the experiment with SF-539. Besides, the GI50 with RPMI-8226 is > 100 µM (inactive).
Turning to `COc1cccc(/C=C(\NC(C)=O)c2nc3cc(Cl)ccc3[nH]2)c1`, the GI50 was 59.3 µM (inactive) with HOP-92; > 100 µM (inactive) with HCC 2998; > 100 µM (inactive) in the experiment with RXF 393; > 100 µM (inactive) in the experiment with NCI-H23; > 100 µM (inactive) in the experiment with TK-10; > 100 µM (inactive) with OVCAR-3. For the same compound, the GI50 was over 100 µM in the experiment on HCT-15; > 100 µM (inactive) with ACHN; > 100 µM (inactive) in the experiment with K562; > 100 µM (inactive) with M14; > 100 µM (inactive) in the experiment on SK-MEL-5; > 100 µM (inactive) in the experiment with SF-539.
Turning to `O=C1NC(=O)C(C(=O)C(=O)Nc2ccc(Cl)cc2Cl)C(=O)N1`, the GI50 with HOP-92 is 36.8 µM (inactive); in the experiment on HCC 2998 it was > 100 µM (inactive); in the experiment with TK-10, > 100 µM (inactive); in the experiment with OVCAR-3 it was > 100 µM (inactive); in the experiment on HCT-15 it was over 100 µM; with ACHN it was > 100 µM (inactive). Further, the GI50 was > 100 µM (inactive) with K562; > 100 µM (inactive) in the experiment with M14; > 100 µM (inactive) in the experiment on SK-MEL-5; > 100 µM (inactive) in the experiment on NCI-H460; > 100 µM (inactive) in the experiment on A498; > 10 µM (inactive) with SF-539. For the same compound, the GI50 with RPMI-8226 was > 100 µM (inactive).
With `O=C1OCC(C(=O)c2cccc(O)c2)C1=O` (configuration not stated), the GI50 with HOP-92, in the experiment on HCC 2998, in the experiment on RXF 393, with NCI-H23, with TK-10 and in the experiment with OVCAR-3 was > 100 µM (inactive) throughout. The GI50 in the experiment on HCT-15 was over 100 µM; in the experiment with ACHN, > 100 µM (inactive); in the experiment with M14, > 100 µM (inactive); with SK-MEL-5, > 100 µM (inactive); in the experiment with NCI-H460, > 100 µM (inactive); in the experiment with A498, > 100 µM (inactive). Further, the GI50 with SF-539 and with RPMI-8226 was > 100 µM (inactive) each time.
Take `C=CC1=C(C)c2cc3[nH]c(cc4nc(cc5[nH]c(cc1n2)c(C)c5CCC(=O)N(CC)CC)C(CCC(=O)N(CC)CC)=C4C)c(C)c3C=C`: the GI50 with HOP-92 is 6.04 µM (inactive); with HCC 2998 it was > 100 µM (inactive); in the experiment on RXF 393, 75.9 µM (inactive); in the experiment on NCI-H23, > 100 µM (inactive); in the experiment with TK-10, > 100 µM (inactive); in the experiment on OVCAR-3, > 100 µM (inactive). The GI50 in the experiment with HCT-15 was over 100 µM; in the experiment on ACHN it was > 100 µM (inactive); in the experiment on K562 it was > 100 µM (inactive); in the experiment on M14 it was > 100 µM (inactive); in the experiment with SK-MEL-5 it was > 100 µM (inactive); with NCI-H460 it was > 100 µM (inactive). Further, the GI50 with SF-539 is > 100 µM (inactive).
